From publication PMC10924921, “Mi-2β promotes immune evasion in melanoma by activating EZH2 methylation” (Nature Communications, 2024)

Assays:
Assay in all cases: biochemical
Set-up in all cases: KINOMEscan active-site competition binding panel (468 kinase assays), per cent of control at 1000 nM
Conditions in all cases: KINOMEscan per cent of control (binding competition); read-out: Percent Control
PKMYT1 = PKMYT1 (Homo sapiens, UniProt Q99640)
Text: (§1) Figure S7 / Percent Control

EPHB1 = EPHB1 (Homo sapiens, UniProt P54762)
Sequence of EPHB1 (P54762 whole entry): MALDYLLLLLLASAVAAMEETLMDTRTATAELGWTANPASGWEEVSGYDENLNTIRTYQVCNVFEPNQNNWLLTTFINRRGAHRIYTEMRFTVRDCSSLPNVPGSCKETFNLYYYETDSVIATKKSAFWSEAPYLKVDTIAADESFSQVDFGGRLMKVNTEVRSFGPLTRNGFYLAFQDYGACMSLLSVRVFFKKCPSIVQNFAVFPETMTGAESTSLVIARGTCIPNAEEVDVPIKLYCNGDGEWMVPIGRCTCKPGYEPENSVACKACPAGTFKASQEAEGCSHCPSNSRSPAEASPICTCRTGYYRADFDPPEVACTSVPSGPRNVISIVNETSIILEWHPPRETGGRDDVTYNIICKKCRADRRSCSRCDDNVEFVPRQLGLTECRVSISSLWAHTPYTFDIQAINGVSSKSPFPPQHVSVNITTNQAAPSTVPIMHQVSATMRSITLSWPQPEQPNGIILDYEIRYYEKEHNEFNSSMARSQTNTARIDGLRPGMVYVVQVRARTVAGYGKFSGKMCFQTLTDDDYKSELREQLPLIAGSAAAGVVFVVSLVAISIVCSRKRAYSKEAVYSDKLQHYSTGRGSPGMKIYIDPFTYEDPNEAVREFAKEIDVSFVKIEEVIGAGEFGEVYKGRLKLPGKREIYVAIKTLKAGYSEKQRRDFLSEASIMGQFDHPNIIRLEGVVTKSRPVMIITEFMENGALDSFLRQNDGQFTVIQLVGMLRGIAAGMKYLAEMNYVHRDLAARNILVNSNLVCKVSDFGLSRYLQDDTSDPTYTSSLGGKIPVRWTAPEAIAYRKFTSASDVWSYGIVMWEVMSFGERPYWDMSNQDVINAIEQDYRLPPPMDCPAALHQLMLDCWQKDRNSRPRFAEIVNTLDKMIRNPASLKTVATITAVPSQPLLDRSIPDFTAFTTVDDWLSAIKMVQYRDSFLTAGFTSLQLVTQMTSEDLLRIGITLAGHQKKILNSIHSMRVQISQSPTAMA
Text: as §1

ARK5 = target: T1, ARK5 (Homo sapiens, UniProt O60285)
T1 construct: gene NUAK1
T1 sequence (O60285 whole entry): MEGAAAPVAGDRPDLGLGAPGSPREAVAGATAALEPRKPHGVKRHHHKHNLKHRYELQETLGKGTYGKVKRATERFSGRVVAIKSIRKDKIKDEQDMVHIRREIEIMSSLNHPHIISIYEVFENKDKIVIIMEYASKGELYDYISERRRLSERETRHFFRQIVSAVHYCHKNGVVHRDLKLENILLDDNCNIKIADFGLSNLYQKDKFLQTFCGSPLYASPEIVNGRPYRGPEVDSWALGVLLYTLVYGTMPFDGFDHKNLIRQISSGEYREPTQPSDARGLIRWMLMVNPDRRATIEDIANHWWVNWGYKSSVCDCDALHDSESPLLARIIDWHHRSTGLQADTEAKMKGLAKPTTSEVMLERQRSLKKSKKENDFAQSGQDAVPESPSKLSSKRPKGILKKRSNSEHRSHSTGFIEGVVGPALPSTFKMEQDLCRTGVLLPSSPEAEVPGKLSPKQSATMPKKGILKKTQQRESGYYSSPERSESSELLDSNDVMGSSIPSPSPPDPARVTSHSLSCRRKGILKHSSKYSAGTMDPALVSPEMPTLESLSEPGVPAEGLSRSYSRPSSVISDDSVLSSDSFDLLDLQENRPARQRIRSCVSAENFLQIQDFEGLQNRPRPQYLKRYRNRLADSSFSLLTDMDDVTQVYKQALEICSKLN
Text: as §1

CAMKK2 = CAMKK2 (Homo sapiens, UniProt Q96RR4)
Text: as §1

PRKX = PRKX (Homo sapiens, UniProt P51817)
Text: as §1

ROCK2 = ROCK2 (Homo sapiens, UniProt O75116)
Text: as §1

IRAK1 = IRAK1 (Homo sapiens, UniProt P51617)
Text: as §1

TRKB = target: T2, TRKB (Homo sapiens, UniProt Q16620)
T2 construct: gene NTRK2
Text: as §1

PIK3CB = PIK3CB (Homo sapiens, UniProt P42338)
Sequence of PIK3CB (P42338 whole entry): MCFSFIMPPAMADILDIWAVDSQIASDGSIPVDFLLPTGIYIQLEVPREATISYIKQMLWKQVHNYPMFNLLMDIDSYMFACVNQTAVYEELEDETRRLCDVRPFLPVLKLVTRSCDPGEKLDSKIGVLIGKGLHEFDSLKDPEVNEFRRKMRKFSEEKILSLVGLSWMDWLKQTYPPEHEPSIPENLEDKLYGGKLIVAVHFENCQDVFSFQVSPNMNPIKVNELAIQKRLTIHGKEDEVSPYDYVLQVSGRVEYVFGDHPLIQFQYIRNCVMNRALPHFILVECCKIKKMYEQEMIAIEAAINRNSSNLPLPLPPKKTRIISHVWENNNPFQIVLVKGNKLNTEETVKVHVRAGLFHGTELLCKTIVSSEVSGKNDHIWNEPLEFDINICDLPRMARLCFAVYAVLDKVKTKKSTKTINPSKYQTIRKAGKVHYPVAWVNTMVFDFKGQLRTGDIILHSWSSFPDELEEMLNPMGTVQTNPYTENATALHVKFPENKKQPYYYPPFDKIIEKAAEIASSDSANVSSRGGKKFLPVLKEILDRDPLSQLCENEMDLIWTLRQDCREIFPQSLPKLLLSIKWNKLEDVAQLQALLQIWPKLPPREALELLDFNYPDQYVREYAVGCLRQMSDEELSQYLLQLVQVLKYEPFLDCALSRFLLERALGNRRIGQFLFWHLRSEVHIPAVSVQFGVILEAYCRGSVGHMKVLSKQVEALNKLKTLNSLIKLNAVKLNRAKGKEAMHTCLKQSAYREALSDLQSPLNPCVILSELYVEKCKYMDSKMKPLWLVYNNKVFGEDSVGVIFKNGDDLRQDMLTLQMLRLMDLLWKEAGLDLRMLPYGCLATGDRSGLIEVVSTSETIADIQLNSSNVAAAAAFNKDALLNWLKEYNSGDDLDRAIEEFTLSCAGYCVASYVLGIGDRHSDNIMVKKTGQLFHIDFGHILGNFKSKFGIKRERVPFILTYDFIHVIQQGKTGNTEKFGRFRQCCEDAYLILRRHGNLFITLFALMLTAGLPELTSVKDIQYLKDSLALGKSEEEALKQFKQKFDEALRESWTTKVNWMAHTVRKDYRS
Text: as §1

DYRK1B = DYRK1B (Homo sapiens, UniProt Q9Y463)
Text: as §1

CSNK1A1L = CSNK1A1L (Homo sapiens, UniProt Q8N752)
Sequence of CSNK1A1L (Q8N752 whole entry): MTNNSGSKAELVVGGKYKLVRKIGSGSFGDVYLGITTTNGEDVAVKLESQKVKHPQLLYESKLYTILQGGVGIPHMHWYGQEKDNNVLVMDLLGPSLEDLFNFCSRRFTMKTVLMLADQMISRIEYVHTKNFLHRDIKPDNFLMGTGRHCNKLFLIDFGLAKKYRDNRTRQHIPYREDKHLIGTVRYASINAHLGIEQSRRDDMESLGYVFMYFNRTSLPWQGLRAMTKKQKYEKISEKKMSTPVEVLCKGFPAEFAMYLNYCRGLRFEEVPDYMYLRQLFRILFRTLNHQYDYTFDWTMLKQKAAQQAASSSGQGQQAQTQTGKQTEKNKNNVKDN
Text: as §1

PIP5K2C = target: T3, PIP5K2C (Homo sapiens, UniProt Q8TBX8)
T3 construct: gene PIP4K2C
Text: as §1

FLT3(ITD) = FLT3(ITD) (Homo sapiens, UniProt P36888, ITD)
Text: as §1

PAK2 = PAK2 (Homo sapiens, UniProt Q13177)
Text: as §1

GRK4 = GRK4 (Homo sapiens, UniProt P32298)
Text: as §1

MST1 = target: T4, MST1 (Homo sapiens, UniProt Q13043)
T4 construct: gene STK4
Text: as §1

CTK = target: T5, CTK (Homo sapiens, UniProt P42679)
T5 construct: gene MATK
Text: as §1

[1] = target: T6, ABL1(H396P)-phosphorylated (Homo sapiens, UniProt P00519, H396P)
T6 construct: phosphorylated
Text: as §1

EPHA4 = EPHA4 (Homo sapiens, UniProt P54764)
Text: as §1

NIM1 = target: T7, NIM1 (Homo sapiens, UniProt Q8IY84)
T7 construct: gene NIM1K
T7 sequence (Q8IY84 whole entry): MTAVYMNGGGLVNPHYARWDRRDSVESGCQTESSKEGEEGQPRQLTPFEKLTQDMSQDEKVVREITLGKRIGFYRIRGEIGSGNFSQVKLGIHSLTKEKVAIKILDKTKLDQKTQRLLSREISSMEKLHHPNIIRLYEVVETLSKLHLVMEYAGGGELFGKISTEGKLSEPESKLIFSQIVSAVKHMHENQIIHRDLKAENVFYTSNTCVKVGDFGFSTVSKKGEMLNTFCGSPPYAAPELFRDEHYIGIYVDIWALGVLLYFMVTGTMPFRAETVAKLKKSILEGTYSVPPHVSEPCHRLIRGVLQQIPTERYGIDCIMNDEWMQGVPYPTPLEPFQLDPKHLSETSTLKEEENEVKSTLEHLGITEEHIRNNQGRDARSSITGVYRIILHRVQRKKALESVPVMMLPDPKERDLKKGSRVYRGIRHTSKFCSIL
Text: as §1

NIK = target: T8, NIK (Homo sapiens, UniProt Q99558)
T8 construct: gene MAP3K14
Text: as §1

KIT = KIT (Homo sapiens, UniProt P10721)
Text: as §1

EPHA1 = EPHA1 (Homo sapiens, UniProt P21709)
Text: as §1

BMPR1A = BMPR1A (Homo sapiens, UniProt P36894)
Sequence of BMPR1A (P36894 whole entry): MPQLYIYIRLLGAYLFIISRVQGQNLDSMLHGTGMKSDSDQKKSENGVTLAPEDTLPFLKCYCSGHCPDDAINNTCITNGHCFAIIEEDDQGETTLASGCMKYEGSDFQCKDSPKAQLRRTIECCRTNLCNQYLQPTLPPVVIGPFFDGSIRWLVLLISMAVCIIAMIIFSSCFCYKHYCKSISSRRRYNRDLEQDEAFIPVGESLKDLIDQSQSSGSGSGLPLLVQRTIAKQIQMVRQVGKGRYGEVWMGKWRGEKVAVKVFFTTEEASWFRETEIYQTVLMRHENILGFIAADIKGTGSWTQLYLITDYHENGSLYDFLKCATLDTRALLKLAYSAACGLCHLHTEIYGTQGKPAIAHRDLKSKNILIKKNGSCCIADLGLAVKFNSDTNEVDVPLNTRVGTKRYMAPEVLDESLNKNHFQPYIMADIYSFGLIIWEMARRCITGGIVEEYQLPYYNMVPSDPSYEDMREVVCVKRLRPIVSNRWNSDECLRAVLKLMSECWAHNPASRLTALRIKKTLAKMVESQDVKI
Text: as §1

MEK5 = target: T9, MEK5 (Homo sapiens, UniProt Q13163)
T9 construct: gene MAP2K5
T9 sequence (Q13163 whole entry): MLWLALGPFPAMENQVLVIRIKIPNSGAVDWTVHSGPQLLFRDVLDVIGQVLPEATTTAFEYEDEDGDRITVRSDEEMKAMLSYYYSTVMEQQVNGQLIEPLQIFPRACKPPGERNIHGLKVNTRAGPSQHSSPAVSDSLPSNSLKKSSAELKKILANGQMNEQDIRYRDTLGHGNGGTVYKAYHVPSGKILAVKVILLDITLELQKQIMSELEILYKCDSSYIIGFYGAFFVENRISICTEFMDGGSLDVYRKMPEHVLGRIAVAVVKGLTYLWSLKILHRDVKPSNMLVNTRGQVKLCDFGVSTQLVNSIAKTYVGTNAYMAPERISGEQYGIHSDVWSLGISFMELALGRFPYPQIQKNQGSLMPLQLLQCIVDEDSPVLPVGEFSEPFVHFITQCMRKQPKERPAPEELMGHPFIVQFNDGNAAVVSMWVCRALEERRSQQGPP
Text: as §1

Sequence of PKMYT1 (Q99640 whole entry): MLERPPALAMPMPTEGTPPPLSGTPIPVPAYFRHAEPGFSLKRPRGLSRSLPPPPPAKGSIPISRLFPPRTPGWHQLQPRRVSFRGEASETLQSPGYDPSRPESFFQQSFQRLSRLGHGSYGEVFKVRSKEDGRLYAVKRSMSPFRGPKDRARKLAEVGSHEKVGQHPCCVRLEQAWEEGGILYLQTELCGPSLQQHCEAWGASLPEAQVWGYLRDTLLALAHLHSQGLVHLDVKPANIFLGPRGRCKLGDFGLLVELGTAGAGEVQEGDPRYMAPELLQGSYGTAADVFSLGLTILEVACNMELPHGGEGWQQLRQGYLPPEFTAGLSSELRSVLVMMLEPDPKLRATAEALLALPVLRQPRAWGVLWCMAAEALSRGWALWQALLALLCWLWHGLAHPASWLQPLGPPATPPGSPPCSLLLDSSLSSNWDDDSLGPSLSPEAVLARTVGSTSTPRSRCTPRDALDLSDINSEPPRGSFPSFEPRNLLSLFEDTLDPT

`Cn1c(=O)[nH]c2ccc(-c3cccc(C(=O)NC4CCn5ccnc5C4)c3)cc21` (stereo not shown) [Z36-MP5] was tested. Which remaining binding at 1 µM (PKMYT1) did it give?
Its remaining binding at 1 µM is 93%.

What about the remaining binding at 1 µM (EPHB1) of the same compound?
The remaining binding at 1 µM was 89%.

And the remaining binding at 1 µM (ARK5)?
Its remaining binding at 1 µM is 98%.

What about the remaining binding at 1 µM (CAMKK2) of the same compound?
Its remaining binding at 1 µM is 51%.

What about the remaining binding at 1 µM (PRKX) of the same compound?
Its remaining binding at 1 µM is 38%.

And the remaining binding at 1 µM (ROCK2)?
The remaining binding at 1 µM was 61%.

What about the remaining binding at 1 µM (IRAK1) of the same compound?
The remaining binding at 1 µM was 80%.

And the remaining binding at 1 µM (TRKB)?
The remaining binding at 1 µM was 52%.

What about the remaining binding at 1 µM (PIK3CB) of the same compound?
Its remaining binding at 1 µM is 71%.

What about the remaining binding at 1 µM (DYRK1B) of the same compound?
The remaining binding at 1 µM was 86%.

What about the remaining binding at 1 µM (CSNK1A1L) of the same compound?
Its remaining binding at 1 µM is 99%.

What about the remaining binding at 1 µM (PIP5K2C) of the same compound?
Its remaining binding at 1 µM is 80%.

And the remaining binding at 1 µM (FLT3(ITD))?
Its remaining binding at 1 µM is 92%.

And the remaining binding at 1 µM (PAK2)?
The remaining binding at 1 µM was 63%.

And the remaining binding at 1 µM (GRK4)?
Its remaining binding at 1 µM is 52%.

What about the remaining binding at 1 µM (MST1) of the same compound?
Its remaining binding at 1 µM is 84%.

What about the remaining binding at 1 µM (CTK) of the same compound?
Its remaining binding at 1 µM is 61%.

What about the remaining binding at 1 µM [1] of the same compound?
The remaining binding at 1 µM was 82%.

What about the remaining binding at 1 µM (EPHA4) of the same compound?
The remaining binding at 1 µM was 58%.

What about the remaining binding at 1 µM (NIM1) of the same compound?
The remaining binding at 1 µM was 72%.

What about the remaining binding at 1 µM (NIK) of the same compound?
Its remaining binding at 1 µM is 46%.

And the remaining binding at 1 µM (KIT)?
The remaining binding at 1 µM was 95%.

And the remaining binding at 1 µM (EPHA1)?
The remaining binding at 1 µM was 96%.

What about the remaining binding at 1 µM (BMPR1A) of the same compound?
The remaining binding at 1 µM was 100%.

What about the remaining binding at 1 µM (MEK5) of the same compound?
Its remaining binding at 1 µM is 60%.
